9 compounds from BindingDB's records for patent US20250214932 (Praxis Precision Medicines, 2025) can be followed below.

Bounds are passed on as bounds.

Voltage-dependent T-type calcium channel subunit alpha-1G, sequence (O43497 whole entry): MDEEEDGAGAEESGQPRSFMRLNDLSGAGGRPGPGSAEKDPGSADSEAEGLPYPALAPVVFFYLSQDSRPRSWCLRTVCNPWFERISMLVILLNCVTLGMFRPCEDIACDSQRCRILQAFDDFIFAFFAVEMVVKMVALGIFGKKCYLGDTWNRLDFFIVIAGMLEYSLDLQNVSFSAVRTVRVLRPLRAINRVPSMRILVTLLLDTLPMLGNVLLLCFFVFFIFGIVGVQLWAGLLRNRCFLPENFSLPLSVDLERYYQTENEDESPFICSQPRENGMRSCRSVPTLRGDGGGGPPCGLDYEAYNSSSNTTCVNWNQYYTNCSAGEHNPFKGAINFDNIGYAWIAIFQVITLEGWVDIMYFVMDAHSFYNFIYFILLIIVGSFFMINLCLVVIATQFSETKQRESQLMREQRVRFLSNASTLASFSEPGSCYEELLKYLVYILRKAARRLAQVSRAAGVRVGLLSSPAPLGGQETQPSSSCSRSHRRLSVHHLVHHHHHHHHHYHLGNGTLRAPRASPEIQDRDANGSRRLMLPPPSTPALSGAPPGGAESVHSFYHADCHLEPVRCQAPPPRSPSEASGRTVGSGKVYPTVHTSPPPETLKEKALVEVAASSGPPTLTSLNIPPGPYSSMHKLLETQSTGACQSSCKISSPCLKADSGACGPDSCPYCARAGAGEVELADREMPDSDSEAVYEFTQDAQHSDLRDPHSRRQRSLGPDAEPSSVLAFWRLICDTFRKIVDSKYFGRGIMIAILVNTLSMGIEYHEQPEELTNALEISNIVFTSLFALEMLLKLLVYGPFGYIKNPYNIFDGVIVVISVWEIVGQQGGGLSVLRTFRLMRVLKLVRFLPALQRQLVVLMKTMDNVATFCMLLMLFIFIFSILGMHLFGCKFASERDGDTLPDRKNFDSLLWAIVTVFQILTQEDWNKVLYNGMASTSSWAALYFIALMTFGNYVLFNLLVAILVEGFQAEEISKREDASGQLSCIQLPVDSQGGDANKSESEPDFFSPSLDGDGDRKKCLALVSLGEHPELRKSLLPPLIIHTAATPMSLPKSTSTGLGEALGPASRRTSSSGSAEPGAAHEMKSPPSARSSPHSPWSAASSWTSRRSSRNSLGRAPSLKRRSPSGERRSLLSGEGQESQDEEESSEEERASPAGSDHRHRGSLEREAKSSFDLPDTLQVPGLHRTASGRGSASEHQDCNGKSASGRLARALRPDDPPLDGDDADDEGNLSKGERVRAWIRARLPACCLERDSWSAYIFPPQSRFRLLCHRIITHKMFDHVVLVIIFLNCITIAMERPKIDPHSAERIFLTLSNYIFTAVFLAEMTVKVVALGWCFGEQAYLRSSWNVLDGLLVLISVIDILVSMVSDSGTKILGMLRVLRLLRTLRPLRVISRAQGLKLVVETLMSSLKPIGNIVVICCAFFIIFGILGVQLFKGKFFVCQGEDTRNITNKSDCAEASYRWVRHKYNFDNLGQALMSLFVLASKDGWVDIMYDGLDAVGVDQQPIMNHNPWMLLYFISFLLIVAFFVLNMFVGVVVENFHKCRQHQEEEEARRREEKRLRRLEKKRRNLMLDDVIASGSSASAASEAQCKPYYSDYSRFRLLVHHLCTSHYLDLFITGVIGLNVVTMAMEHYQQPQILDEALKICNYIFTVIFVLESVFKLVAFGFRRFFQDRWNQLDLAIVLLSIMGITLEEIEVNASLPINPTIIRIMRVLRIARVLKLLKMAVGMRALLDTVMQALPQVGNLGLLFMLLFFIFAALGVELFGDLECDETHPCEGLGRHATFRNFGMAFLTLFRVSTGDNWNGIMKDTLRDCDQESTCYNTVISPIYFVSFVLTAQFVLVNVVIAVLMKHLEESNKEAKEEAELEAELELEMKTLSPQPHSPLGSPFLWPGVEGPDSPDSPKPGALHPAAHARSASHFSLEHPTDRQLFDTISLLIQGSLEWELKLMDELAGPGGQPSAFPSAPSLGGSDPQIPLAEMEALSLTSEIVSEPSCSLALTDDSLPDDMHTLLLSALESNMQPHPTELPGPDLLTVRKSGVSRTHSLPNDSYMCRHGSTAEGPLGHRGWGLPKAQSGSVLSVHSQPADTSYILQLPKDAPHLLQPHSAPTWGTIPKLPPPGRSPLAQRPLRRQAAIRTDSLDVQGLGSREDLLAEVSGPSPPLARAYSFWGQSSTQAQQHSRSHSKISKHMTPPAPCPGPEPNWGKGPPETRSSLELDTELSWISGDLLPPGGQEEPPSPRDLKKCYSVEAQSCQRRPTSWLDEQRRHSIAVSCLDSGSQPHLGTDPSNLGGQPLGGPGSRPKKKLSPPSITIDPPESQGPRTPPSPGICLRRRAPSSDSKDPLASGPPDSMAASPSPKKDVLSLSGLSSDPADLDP

This experiment concerns the target Voltage-dependent T-type calcium channel subunit alpha-1G (Homo sapiens, UniProt O43497). Nature of the experiment: In Vitro Cav3.1 Single Point and IC50 (VDB) Data. As for the experimental part: The compound plate was created at 2× concentrated in the extracellular solution. The compound was diluted to 1:2 when added to the recording well. The amount of DMSO in the extracellular solution was held constant at the level used for the highest tested concentration. For the voltage clamp experiments on Cav3.1, data were sampled at 10 KHz. After establishment of the seal and the passage in the whole cell configuration, the cells were held at −120 mV. Cav3.1 current was evoked using a 100 ms step to −20 mV (to measure resting state block), followed by a 1600 ms step to −65 mV and a second 100 ms step to −20 mV (to measure voltage dependent block). The voltage protocol was applied every 15 seconds in the absence and in the presence of the compounds under investigation. […] Current amplitude (pA) was measured in the peak 1 and 2. The average of last 3 sweeps of each liquid period (vehicle, compound under investigation, full block) was calculated. Nickel-sensitive current was used to calculate the % of inhibition in the presence of the compound under investigation.
As a reminder, the IC50 is the midpoint of a concentration-inhibition curve. For the compound `COc1cc(F)cc(NC(=O)C2CCC3(CC2)CN(CC(=O)NC(C)(C)C)C3)c1` [US20250214932, Example 46], the half-maximal inhibitory concentration (IC50) was 218 nM.
To `Cc1cc(F)cc(NC(=O)C2CCC3(CC2)CN(CC(=O)NC(C)(C)C)C3)c1` [US20250214932, Example 48] belongs 196 nM; to `O=C(Nc1cc(F)cc(C(F)F)c1)C1CCC2(CC1)CN(CCNC(=O)C1(C(F)(F)F)CCC1)C2` [US20250214932, Example 52], 261 nM; to `O=C(Nc1cc(F)cc(Cl)c1)C1CCC2(CC1)CN(CC(O)C1CCCCC1)C2` (centres undefined) [US20250214932, Example 68], 170 nM.
Regarding `O=C(CN1CC2(CCC(C(=O)Nc3cc(F)cc(C(F)F)c3)CC2)C1)NC1(C(F)(F)F)CC1` [US20250214932, Example 79], the 50% inhibitory concentration (IC50) is less than 78.2 nM.
To `O=C(CN1CC2(CCC(C(=O)Nc3cc(F)cc(C(F)F)c3)CC2)C1)NC1(C(F)(F)F)CCC1` [US20250214932, Example 85] belongs 163 nM; to `O=C(Nc1cc(F)cc(C(F)F)c1)C1CCC2(CC1)CN(CC(F)(F)C1CCCC1)C2` [US20250214932, Example 100], 407 nM; to `COc1cc(Cl)cc(NC(=O)C2CCC3(CC2)CN(CC2(C#N)CC2)C3)c1` [US20250214932, Example 129], 1360 nM.
Take `O=C(NC12CC3CC(CC(C3)C1)C2)C1CCC2(CC1)CN(CC1(O)CCC(F)(F)CC1)C2` [US20250214932, Example 153]: the half-inhibitory concentration (IC50) worked out at 188 nM.
